The source of these data is patent EP0600342A1, “Hispidospermidin and pharmaceutical compositions” (F. HOFFMANN-LA ROCHE AG, priority 1992, dated 1994).

Entries after “also recorded” stand apart in the source; their conditions may differ.

Data set [1] concerns partially purified rat brain PLC. As to the kind of experiment: Inhibitory activity against PLC (hydrolysis of radiolabelled PI). The class given is biochemical. The settings on record: 250 µM PI substrate, 2 mM CaCl₂, Tris-acetate buffer pH 5.5, 20 min at 30 °C; read-out: IC₅₀. The protocol: Inhibitory activity of hispidospermidin against PLC was measured. The assay mixture (0.1 ml) contained 200 mM Tris-acetate buffer (pH 5.5), 2 mM CaCl₂, 250 µM PI (suspended in the buffer, specific activity: 800 dpm/nmole) and enzyme. In the standard assay, 20 µl of inhibitor in 15 mM Tis-HCl buffer (pH 7.5) was added to the substrate suspension (50 µl). The reaction was started with addition of the enzyme solution prepared from partially purified rat brain PLC (30 µl, ca. 5 µg protein) and incubated for 20 min. at 30 °C. The reaction was terminated by adding 0.3 ml of unlabeled PI (200 µM) solution containing 1 mg/ml of bovine serum albumin and 1 mM EGTA, followed by adding of 0.3 ml of 7.5% ice cold trichloroacetic acid containing 3 mM CaCl₂. Under the conditions, the enzyme hydrolyzed about 30 % of substrate in the assay mixture. As a positive control showing 100% inhibition of PLC, 20 µl of 25 mM EDTA was added to the assay mixture. The incubation mixture was kept on ice for 10 min asn centrifuged at 1,700 x g for 10 min. The radioactivity of an aliquot (0.2 ml) of the supernatant was measured by liquid scintillation counter (ALOKA).

The nature of data set [2]: Solubility (physico-chemical properties). The class given is physicochemical. The settings on record: qualitative, by solvent.
The nature of a further data set: Acute toxicity. The settings on record: no species, dose or route stated. The class given is in vivo.

Turning to `NCCCNCCCCNCCCN` [Sperimine], the IC50 in data set [1] stood at 59.3 µM. The same measure, in the same setting: to `CN1CCN(CCCN2c3ccccc3Sc3ccc(C(F)(F)F)cc32)CC1` [Trifluoperazine] belongs 150 µM; to `CCN(CC)CCCC(C)Nc1c2ccc(Cl)cc2nc2ccc(OC)cc12` (stereo not shown) [Quinacrine], 314 µM; to `NC[C@H]1O[C@H](O[C@H]2[C@H](O)[C@@H](O[C@H]3O[C@H](CO)[C@@H](O)[C@H](N)[C@H]3O)[C@H](N)C[C@@H]2N)[C@H](N)C[C@@H]1O` [Tobramycin], 29.9 µM.

Take `C[C@@H]1CC[C@H]2[C@]13CC[C@@]1(C)O[C@]2(C)[C@@H](NCCCCN(C)CCCN(C)C)[C@H]1C3` [Hispidospermidin, hispidospermidin]: the Solubility entry in data set [2] was “Soluble in MeOH, CHCl₃, acetone, acidic water; also recorded: Insoluble in water”. Further, in data set [1], the IC50 stood at 15.7 µM. Also, in “Acute toxicity”, the Acute toxicity result is “not observed”.
